The values that follow come from ChEMBL document CHEMBL1140528, “A novel flavonoid from Lespedeza virgata (Thunb.) DC.: structural elucidation and antioxidative activity” (Bioorg Med Chem Lett, 2007).

Molecules are shown by their SMILES. Values after ≈ are worked out from the molar mass of the structure shown. Active and inactive are the calls of the source. No cut-off for these calls is given here.

What all share (type): functional
Assay [1] in a line: Antioxidant activity assessed as superoxide radical anion scavenging activity at 0.5 mg/ml by hypoxanthine NBT method.
Assay [2] in a line: Antioxidant activity assessed as superoxide radical anion scavenging activity at 0.2 mg/ml by hypoxanthine NBT method.
A short description of assay [3]: Antioxidant activity assessed as superoxide radical anion scavenging activity by hypoxanthine NBT method.

In the case of `C[C@@H]1O[C@@H](Oc2cc(O)c3c(=O)c(O[C@@H]4O[C@@H](C)[C@H](O)[C@@H](O)[C@H]4O)c(-c4ccc(O)cc4)oc3c2)[C@H](O)[C@H](O)[C@H]1O`, the Activity in assay [1] was 17.6%.

`C[C@@H]1O[C@@H](Oc2c(-c3ccc(O)c(O)c3)oc3cc(O)cc(O)c3c2=O)[C@H](O)[C@H](O)[C@H]1O`: the Activity in assay [1] is 88.9%.

For the compound `C[C@@H]1O[C@@H](Oc2c(-c3ccc(O)cc3)oc3cc(O)cc(O)c3c2=O)[C@H](O)[C@H](O)[C@H]1O`, in assay [1], the Activity was determined as 29.9%.

As to `O=c1c(O)c(-c2ccc(O)c(O)c2)oc2cc(O[C@@H]3O[C@H](CO)[C@@H](O)[C@H](O)[C@H]3O)cc(O)c12`, in assay [1], the Activity was 71.7%.

Broadly, the IC50 is the point on the concentration scale where inhibition reaches its midpoint. With `COc1cc2c(cc1[C@@H]1CC(=O)c3c(O)c(C)c4c(c3O1)C=CC(C)(C)O4)C=CC(C)(C)O2`, in assay [1], the Activity worked out at 95.8%. Also, the result in assay [2] was Active. In assay [3], the IC50 was determined as 140 µg/mL (≈ 312 µM).

For `O=c1c(O[C@@H]2O[C@H](CO)[C@@H](O)[C@H](O)[C@H]2O)c(-c2ccc(O)cc2)oc2cc(O)cc(O)c12`, the Activity in assay [1] is 51.7%.
